# Measured values: patent US11266642B2, “Small molecule inhibitors of HLA-DR3 binding for treating autoimmune thyroiditis” (ICAHN SCHOOL OF MEDICINE AT MOUNT SINAI, priority 2015, dated 2022)
# Where two headings read alike, the source gives them in different places.
# Columns and labels:
# Interferon (IFN gamma) = assay: Cytokine production by immunized mice splenocytes (Milliplex/Luminex); format: cell-based; conditions: Mus musculus, Splenocyte, 1 μM compound, 48 hours
# Procedure: Immunized mice splenocytes were incubated with 1 μM compound Ia together with human thryroglobulin (40 μg/mL) or Tg.2098 (20 μg/mL) to assess the inhibition of cytokines production by compound Ia. […] Milliplex mouse cytokines/chemokine magnetic panel (Catalog no. MCYTOMAG-70K, EMD Millipore Corporation, Billerica, Mass.) was used to assay the cytokines. Splenocytes were plated at 2×10^6 cells per well in 500 uL of medium (RPMI/10% FBS). Supernatants were collected 48 hours after stimulation with hTg or peptides and stored at −80° C. until the assay was performed. To begin the assay, the 96-well plate supplied in the kit was washed with the wash buffer supplied and the plate was shaken for 10 min at room temperature. Standards and quality controls were added, followed by the samples. The pre-mixed beads (IFN gamma, IL-2, IL-4, IL-10) were sonicated and vortexed, and then added to the wells. After shaking the plate overnight at 4° C., the plate was washed twice with wash buffer. Detection antibodies were added for 1 h at room temperature, and Streptavidin-Phycoerythrin was added for 30 min at room temperature. The plate was washed twice and sheath fluid was added to resuspend the beads for 5 min before reading in Luminex 200 with xPONENT software (Luminex, Austin, Tex.) […]
# [1] = target: T1, HLA-DR3 on VAVY cells (HLA-DRβ1-Arg74 positive) (Homo sapiens, UniProt P01903+P01911, A100K/A102G/A103R/A169T/F55Y/I96L/K41T/L162R/M171V/P40S/Q125H/Q178H/Q39Y/R42S/S66N/T106N/T262R/W38E/Y61H); assay: Tg.2098 peptide binding to VAVY cells, flow cytometry; format: cell-based; conditions: 0.025 mM Ia, 7 h pre-incubation; 0.5 μM Tg.2098, 24 h; 42.7% without Ia
# T1 construct: VAVY B-cell line that is homozygous for DR3 (confirmed to contain DRβ1-Arg74); host or cells: VAVY B-cell line
# Procedure: VAVY cells (European Collection of Cell Cultures) were cultured in RPMI (ATCC, Manassas, Va.) supplied with 10% FBS (Sigma-Aldrich, St. Louis, Mo.), 1% Penicillin-Streptomycin (Corning, N.Y.), 2 mM glutamine (Corning, N.Y.) and […] ciprofloxacin hydrochloride (Hospira, Lake Forest, Ill.). Cells were grown at 37° C., 5% CO2 and passaged 1-2 times a week. Cells expressing DR2 (National Development and Research Institutes, Inc) were cultured using the same conditions as VAVY cells. N-terminal biotinylated peptide Tg.2098 was used to test for binding to VAVY cells which express HLA-DR3 on their surface (HLA-DRβ1-Arg74 positive). APC Streptavidin (BD Biosciences, Franklin Lakes, N.J.) was used to detect the biotinylated peptides. A scrambled peptide of Tg.2098 (scr2098) was used as a negative control. VAVY cells were seeded at 2.5×10^6 cells/mL in a 24-well plate (BD Biosciences) and pre-incubated for 7 hours with 0.025 mM of compound Ia or 40% Captisol (Ligand Pharmaceuticals, Inc, La Jolla, Calif.) [the vehicle used to dissolve test compound in this experiment], before 0.5 μM Tg.2098 was added. After 24 h incubation, cells were stained with PE mouse anti-human HLA-DR (BD Biosciences) and APC Streptavidin to detect binding of the peptide to VAVY cells and the inhibitory effect of Compound Ia. Inhibition was analyzed by flow cytometry. As a negative control, cells expressing HLA-DR2 were pre-incubated with example Ia or 40% Captisol, before biotinylated myelin basic protein (MBP) 87-99 (known binder to HLA-DR2) was added and incubated for 24 hours. HLA-DR2 cells were stained with PE mouse anti-human HLA-DR and APC Streptavidin to detect binding of biotinylated MBP87-99 to DR2 expressing cells and to assess the inhibitory effect of compound Ia on peptide binding. To confirm the ELISA results we performed binding inhibition studies using the VAVY B-cell line that is homozygous for DR3 (confirmed to contain DRβ1-Arg74). […]
# [2] = test system: T-cell proliferative responses to hTg or Tg.2098; assay: In vivo PO administration in hTg-immunized NOD-DR3 mice (EAT), T-cell proliferation CFSE assay; parameters: species or system mouse; conditions: PO gavage 250 μg on days -2, -1, 5, 6, sacrifice day 21
# Source text: Mice transgenic for DRB1*0301 were originally generated by G. J Hämmerling and co-workers as previously described [Strauss et al. Immunogenetics 40, 104-108 (1994)]. Briefly, the DR3 (DRA1*0101/DRB1*0301) transgenes were inserted into (C57BL/6×DBA/2) F1 embryos and the progeny were back-crossed to B10.Q mice. The DR3 mice were crossed with I-Aβ knockouts (C57BL/6×129) to obtain mice lacking murine MHC class II and expressing human DR3. The transgenic mouse line was maintained by intercrossing. The background non-MHC genes in the DR3 transgenic line was 50% C57BL/10 genes and 50% contribution from CBA, C57BL/6, and 129 genes. These mice were then back-crossed into NOD background to produce the NOD-DR3 mice [Flynn et al. J Autoimmun, 17, 7-15 (2001)]. The transgene was confirmed to be HLA-DRβ1-Arg74 positive. Mice were bred in a pathogen-free facility (Icahn School of Medicine at Mount Sinai, New York, N.Y.), and expression of HLA-DR3 was tested by PCR using DR3-specific primers: forward primer 5′ CGCTTCGACAGCGAC 3′ (SEQ ID NO:4) and reverse primer 5′ GACAAATCCACACTCCAC 3′ (SEQ ID NO:5). […]
# Three female NOD-DR3 mice (6 to 10 weeks old) were fed with 250 μg of Compound Ia PO using gavage on day (−2) and day (−1), followed by SQ immunization of hTg mixed with CFA on day 0. […] Stimulation index was calculated as before.
# T1 sequence (P01903 26-254, other chains not shown): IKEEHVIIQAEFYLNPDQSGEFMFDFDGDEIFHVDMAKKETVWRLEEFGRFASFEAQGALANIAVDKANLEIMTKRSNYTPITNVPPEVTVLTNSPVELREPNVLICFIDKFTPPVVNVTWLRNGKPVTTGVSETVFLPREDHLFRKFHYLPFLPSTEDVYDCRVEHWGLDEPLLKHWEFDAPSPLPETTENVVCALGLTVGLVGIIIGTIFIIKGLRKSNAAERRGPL
smiles,measurement,setting,value
"COc1ccc2cc1Oc1ccc(cc1)C[C@H]1c3c(cc4c(c3Oc3cc5c(cc3OC)CCN(C)[C@@H]5C2)OCO4)CCN1C [Compound Ia, cepharanthine]",inhibition at 1 µM,"Interferon (IFN gamma); Tg.2098 20 μg/mL, p<0.0001, read-out: Interferon inhibition, Tg.2098 stimulation",48.8%
same,inhibition at 1 µM,"Interferon (IFN gamma); hTg 40 μg/mL, p=0.002, read-out: Interferon inhibition, hTg stimulation",38.7%
same,binding of Tg.2098 to VAVY cells in the presence of Ia,[1],16.6%
same,"Stimulation index, T-cell stimulation in response to hTg","[2]; vehicle 1.8 ± 0.2, p=0.0285",1.0 ± 0.2
same,"Stimulation index, T-cell stimulation in response to Tg.2098","[2]; vehicle 1.9 ± 0.3, p=0.0147",0.9 ± 0.1
